The results in this text go back to US9596854B2, “Fungicidal penflufen mixtures” (priority 2010, dated 2017).

Like-named read-outs stand apart in the source and are kept apart here.

Common to all, as to assay: Synergism test: MIC of radial hyphae growth on malt extract/peptone agar, SI by Kull
Common to all, as to assay type: cell-based

One assay deals with Coriolus versicolor. Particulars: for MIC: Trametes versicolor.
In the next assay the test system is Poria placenta. Particulars: nutrient agar, 26° C.
Another assay has as its system Gloeophyllum trabeum.
For another assay, the system named is Stereum sanguinolentum. Conditions: nutrient agar, 26° C.
The subject of the next assay is Coniophora puteana. Particulars: Example 8, penflufen/boron oxide, nutrient agar, 26° C.
Where [1] appears, read: Example 4, penflufen/DDAC, read-out: MIC Poria placenta.
Where [2] appears, read: Example 3, penflufen/Lonzabac, nutrient agar, 26° C, read-out: MIC against Coriolus versicolor.
Setting [3] is: Example 5, penflufen/DDA propionate.
[4] abbreviates: Example 1, penflufen/IPBC, nutrient agar, 26° C, complete suppression of radial hyphae growth, read-out: MIC against Gloeophyllum trabeum.
Setting [5] is: Example 9, penflufen/boric acid, nutrient agar, 26° C, read-out: MIC Gloeophyllum trabeum.

Consider `CCCCCCCCCC[N+](C)(C)CCCCCCCCCC.[Cl-]` [DDAC, Didecyldimethylammonium Chloride], for which the MIC (commonly the least concentration at which growth counts as inhibited) was 60 µg/mL in the assay with Coriolus versicolor (read-out: MIC Coriolus versicolor) and 100 µg/mL with Poria placenta (setting [1]).

As to benzalkonium chloride, the “MIC against Poria placenta” value in the assay with Poria placenta (Example 6, penflufen/benzalkonium chloride) was found to be 100.0 ppm.

On to `Oc1ccccc1-c1ccccc1` [o-phenylphenol], for which, in the assay with Gloeophyllum trabeum (read-out: MIC against Gloeophyllum trabeum), the MIC stood at 60 µg/mL.

For `CCCCCCCCCCCCN(CCCN)CCCN` [Lonzabac, N-(3-aminopropyl)-N-dodecyl-1,3-propanediamine], the MIC with Coriolus versicolor (setting [2]) turned out to be 30 µg/mL.

Regarding `O.O.O.O.O.O.O.O.O.O.[Na+].[Na+].[O-]B1OB2OB([O-])OB(O1)O2` [sodium borate], in the assay with Poria placenta (Example 10, penflufen/sodium borate), the “MIC against Poria placenta” value was 100.0 ppm.

For the compound “didecylmethylpoly(oxyethyl)ammonium Propionate [DDA propionate]”, the “MIC Stereum sanguinolentum” value in the assay with Stereum sanguinolentum (setting [3]) stood at 30.0 ppm. For the same compound, the “MIC Poria placenta” value in the assay with Poria placenta (setting [3]) is given as 100.0 ppm.

For the compound `CCCCNC(=O)OCC#CI` [IPBC, 3-Iodo-2-propynyl N-butylcarbamate], the MIC in the assay on Gloeophyllum trabeum (setting [4]) came out at 10 µg/mL.

`Cc1nn(C)c(F)c1C(=O)Nc1ccccc1C(C)CC(C)C` (stereo not drawn) [penflufen]: the “MIC Stereum sanguinolentum” value in the assay with Stereum sanguinolentum (Example 7, penflufen/Carboquat) was 3.0 ppm. The MIC came out at 3 µg/mL in the assay with Stereum sanguinolentum (Stereum sanguinolentum, Example 5, penflufen/DDA propionate); 0.5 µg/mL with Coriolus versicolor (setting [2]); 0.1 µg/mL in the assay on Coriolus versicolor (Example 4, penflufen/DDAC, nutrient agar, 26° C, read-out: MIC Coriolus versicolor); 0.7 µg/mL with Coniophora puteana (Coniophora puteana, read-out: MIC against Coniophora puteana); 0.3 µg/mL in the assay on Gloeophyllum trabeum (setting [4]); 0.3 µg/mL in the assay with Gloeophyllum trabeum (setting [5]). In addition, the MIC in the assay with Gloeophyllum trabeum (Example 11, penflufen/o-phenylphenol, nutrient agar, 26° C, read-out: MIC against Gloeophyllum trabeum) is 0.7 µg/mL; in the assay with Poria placenta (Example 2, penflufen/DCOIT, read-out: MIC against Poria placenta) it was 0.3 µg/mL; in the assay on Poria placenta (setting [1]), 0.1 µg/mL; with Poria placenta (Example 5, penflufen/DDA propionate, read-out: MIC Poria placenta) it was 0.3 µg/mL; with Poria placenta (Example 6, penflufen/benzalkonium chloride, read-out: MIC against Poria placenta), 0.3 µg/mL; with Poria placenta (Example 7, penflufen/Carboquat, read-out: MIC Poria placenta), 0.3 µg/mL. Also, in the assay on Poria placenta (Example 10, penflufen/sodium borate, read-out: MIC against Poria placenta), the MIC came out at 0.3 µg/mL. Besides, the “MIC Coriolus versicolor” value in the assay on Coriolus versicolor (Example 9, penflufen/boric acid, nutrient agar, 26° C) stood at 0.1 ppm.

On to `OB(O)O` [boric acid], for which the MIC turned out to be 100 µg/mL in the assay on Coriolus versicolor (Example 9, penflufen/boric acid, nutrient agar, 26° C, read-out: MIC Coriolus versicolor) and 100 µg/mL in the assay on Gloeophyllum trabeum (setting [5]).

boron oxide: the “MIC against Coniophora puteana” value with Coniophora puteana amounted to 100 ppm.
